ChEMBL document CHEMBL5365394, “Design, synthesis and biological evaluation of novel spiro-quinazolinone derivatives as chitin synthase inhibitors and antifungal agents” (Eur J Med Chem, 2023)
pIC50, pKi: −log10 of the molar value. Values after ≈ are worked out from the molar mass of the structure shown. Active and inactive are the calls of the source. No cut-off for these calls is given here.

What was measured:
[1] = Cytotoxicity against human A549 cells assessed as cell viability at 4 ug/ml incubated for 24 hrs by CCK-8 assay relative to control; assay type: toxicity, cell-based; conditions: at 4 µg/mL, read-out: Activity
Aspergillus flavus [2] = assay: Antifungal activity against Fluconazole-resistant Aspergillus flavus ATCC 16870R assessed as fungal growth inhibition; assay type: functional
Candida albicans [3] = assay: Synergistic antifungal activity against Candida albicans ATCC 76615 assessed as polyoxin B MIC incubated for 24 hrs by checkerboard broth microdilution method; assay type: functional
[4] = Cytotoxicity against human A549 cells assessed as cell viability at 64 ug/ml incubated for 24 hrs by CCK-8 assay relative to control; assay type: toxicity, cell-based; conditions: at 64 µg/mL, read-out: Activity
Aspergillus flavus [5] = assay: Synergistic antifungal activity against Aspergillus flavus ATCC 16870 assessed as polyoxin B MIC incubated for 24 hrs by checkerboard broth microdilution method; assay type: functional
Cryptococcus neoformans [6] = assay: Synergistic antifungal activity against Cryptococcus neoformans ATCC 32719 assessed as polyoxin B MIC incubated for 24 hrs in by checkerboard broth microdilution method; assay type: functional
Candida albicans [7] = assay: Synergistic antifungal activity against Candida albicans ATCC 76615 assessed as fluconazole MIC incubated for 24 hrs in by checkerboard broth microdilution method; assay type: functional
Candida tropicalis [8] = assay: Non competitive inhibition of Candida tropicalis ATCC 750 chitin synthase using UDP-GlcNAc as substrate assessed as Km at 0.05 to 0.15 mM incubated for 1 hr by Michaelis-Menten analysis; conditions: dose 0.05-0.15 mM
Candida albicans [9] = assay: Synergistic antifungal activity against Candida albicans ATCC 76615 assessed as fractional inhibitory concentration index incubated for 24 hrs in presence of fluconazole by checkerboard broth microdilution method; assay type: functional
Candida albicans [10] = assay: Antifungal activity against Candida albicans ATCC 76615 assessed as inhibition of cell wall synthesis incubated for 24 hrs in absence of sorbitol; assay type: functional
Aspergillus flavus [11] = assay: Antifungal activity against Aspergillus flavus ATCC 16870 assessed as inhibition of cell wall synthesis incubated for 24 hrs in absence of sorbitol; assay type: functional
Aspergillus flavus [12] = assay: Antifungal activity against Aspergillus flavus ATCC 16870 assessed as fungal growth inhibition incubated for 24 hrs by two-fold serial dilution method; assay type: functional
Aspergillus flavus [13] = assay: Antifungal activity against Aspergillus flavus ATCC 16870 assessed as inhibition of cell wall synthesis incubated for 24 hrs in presence of sorbitol; assay type: functional
Aspergillus flavus [14] = assay: Synergistic antifungal activity against Aspergillus flavus ATCC 16870 assessed as fractional inhibitory concentration index incubated for 24 hrs in presence of polyoxin B by checkerboard broth microdilution method; assay type: functional
Candida tropicalis [15] = assay: Non competitive inhibition of Candida tropicalis ATCC 750 chitin synthase using UDP-GlcNAc as substrate assessed as Vmax at 0.05 to 0.15 mM incubated for 1 hr by Michaelis-Menten analysis; conditions: dose 0.05-0.15 mM
Candida albicans [16] = assay: Synergistic antifungal activity against Candida albicans ATCC 76615 assessed as fractional inhibitory concentration index incubated for 24 hrs in presence of polyoxin B by checkerboard broth microdilution method; assay type: functional
Aspergillus fumigatus [17] = assay: Synergistic antifungal activity against Aspergillus fumigatus GIMCC 3.19 assessed as polyoxin B MIC incubated for 24 hrs by checkerboard broth microdilution method; assay type: functional
A549 = assay: Cytotoxicity against human A549 cells assessed as cell viability incubated for 24 hrs at 128 ug/ml by CCK-8 assay relative to control; conditions: dose 128 µg/ml
[18] = Cytotoxicity against human A549 cells assessed as cell viability at 8 ug/ml incubated for 24 hrs by CCK-8 assay relative to control; assay type: toxicity, cell-based; conditions: at 8 µg/mL, read-out: Activity
Aspergillus fumigatus [19] = assay: Antifungal activity against Fluconazole-resistant Aspergillus fumigatus GIMCC 3.19R assessed as fungal growth inhibition; assay type: functional
Aspergillus fumigatus [20] = assay: Synergistic antifungal activity against Aspergillus fumigatus GIMCC 3.19 assessed as fractional inhibitory concentration index incubated for 24 hrs in presence of polyoxin B by checkerboard broth microdilution method; assay type: functional
Candida albicans [21] = assay: Antifungal activity against Candida albicans ATCC 76615 assessed as fungal growth inhibition incubated for 24 hrs by two-fold serial dilution method; assay type: functional
Candida albicans [22] = assay: Antifungal activity against Micafungin-resistant Candida albicans ATCC 76615R assessed as fungal growth inhibition; assay type: functional
Candida tropicalis [23] = assay: Inhibition of Candida tropicalis ATCC 750 chitin synthase using […] as substrate at 300 ug/ml incubated for 1 hr by absorbance based assay relative to control; conditions: dose 300.0 µg/ml
Aspergillus fumigatus [24] = assay: Synergistic antifungal activity against Aspergillus fumigatus GIMCC 3.19 assessed as fluconazole MIC incubated for 24 hrs in by checkerboard broth microdilution method; assay type: functional
Candida albicans [25] = assay: Antifungal activity against Candida albicans ATCC 76615 assessed as inhibition of cell wall synthesis incubated for 24 hrs in presence of sorbitol; assay type: functional
Aspergillus fumigatus [26] = assay: Synergistic antifungal activity against Aspergillus fumigatus GIMCC 3.19 assessed as fractional inhibitory concentration index incubated for 24 hrs in presence of fluconazole by checkerboard broth microdilution method; assay type: functional
Candida tropicalis [27] = assay: Non competitive inhibition of Candida tropicalis ATCC 750 chitin synthase using UDP-GlcNAc as substrate assessed as decrease in Vmax with constant Km at 0.05 to 0.15 mM incubated for 1 hr by Michaelis-Menten analysis; conditions: dose 0.05-0.15 mM
Cryptococcus neoformans [28] = assay: Antifungal activity against Fluconazole-resistant Cryptococcus neoformans ATCC 32719R assessed as fungal growth inhibition; assay type: functional
Aspergillus fumigatus [29] = assay: Antifungal activity against Aspergillus fumigatus GIMCC 3.19 assessed as inhibition of cell wall synthesis incubated for 24 hrs in absence of sorbitol; assay type: functional
Cryptococcus neoformans [30] = assay: Synergistic antifungal activity against Cryptococcus neoformans ATCC 32719 assessed as fluconazole MIC incubated for 24 hrs in by checkerboard broth microdilution method; assay type: functional
Aspergillus flavus [31] = assay: Synergistic antifungal activity against Aspergillus flavus ATCC 16870 assessed as fractional inhibitory concentration index incubated for 24 hrs in presence of fluconazole by checkerboard broth microdilution method; assay type: functional
Aspergillus fumigatus [32] = assay: Antifungal activity against Aspergillus fumigatus GIMCC 3.19 assessed as inhibition of cell wall synthesis incubated for 24 hrs in presence of sorbitol; assay type: functional
Cryptococcus neoformans [33] = assay: Synergistic antifungal activity against Cryptococcus neoformans ATCC 32719 assessed as fractional inhibitory concentration index incubated for 24 hrs in presence of fluconazole by checkerboard broth microdilution method; assay type: functional
Cryptococcus neoformans [34] = assay: Antifungal activity against Cryptococcus neoformans ATCC 32719 assessed as inhibition of cell wall synthesis incubated for 24 hrs in presence of sorbitol; assay type: functional
[35] = Cytotoxicity against human A549 cells assessed as cell viability at 16 ug/ml incubated for 24 hrs by CCK-8 assay relative to control; assay type: toxicity, cell-based; conditions: at 16 µg/mL, read-out: Activity
[36] = Inhibition of Candida tropicalis ATCC 750 chitin synthase using UDP-GlcNAc as substrate incubated for 1 hr by absorbance based assay
Cryptococcus neoformans [37] = assay: Synergistic antifungal activity against Cryptococcus neoformans ATCC 32719 assessed as fractional inhibitory concentration index incubated for 24 hrs in presence of polyoxin B by checkerboard broth microdilution method; assay type: functional
Cryptococcus neoformans [38] = assay: Antifungal activity against Cryptococcus neoformans ATCC 32719 assessed as fungal growth inhibition incubated for 24 hrs by two-fold serial dilution method; assay type: functional
[39] = Cytotoxicity against human A549 cells assessed as cell viability at 32 ug/ml incubated for 24 hrs by CCK-8 assay relative to control; assay type: toxicity, cell-based; conditions: at 32 µg/mL, read-out: Activity
[40] = Non competitive inhibition of Candida tropicalis ATCC 750 chitin synthase using UDP-GlcNAc as substrate assessed as inhibition constant incubated for 1 hr by double reciprocal plot analysis
Cryptococcus neoformans [41] = assay: Antifungal activity against Cryptococcus neoformans ATCC 32719 assessed as inhibition of cell wall synthesis incubated for 24 hrs in absence of sorbitol; assay type: functional
Aspergillus fumigatus [42] = assay: Antifungal activity against Aspergillus fumigatus GIMCC 3.19 assessed as fungal growth inhibition incubated for 24 hrs by two-fold serial dilution method; assay type: functional
Aspergillus flavus [43] = assay: Synergistic antifungal activity against Aspergillus flavus ATCC 16870 assessed as fluconazole MIC incubated for 24 hrs in by checkerboard broth microdilution method; assay type: functional
Candida albicans [44] = assay: Antifungal activity against Fluconazole-resistant Candida albicans ATCC 76615R assessed as fungal growth inhibition; assay type: functional

SMILES: O=C(/C=C/C(=O)Nc1ccc2c(c1)C(=O)NC1(CCSC1)N2)Nc1ccc([N+](=O)[O-])cc1 (stereo not given)
- viability at 24 h, 4 ug/ml [1]: 95.1%
- MIC (Aspergillus flavus [2]): 8 µg/mL (≈ 17.6 µM)
- MIC (Candida albicans [3]): 2 µg/mL
- viability at 24 h, 64 ug/ml [4]: 67.1%
- MIC (Aspergillus flavus [5]): 2 µg/mL
- MIC (Cryptococcus neoformans [6]): 4 µg/mL
- MIC (Candida albicans [7]): 0.5 µg/mL
- Km (Candida tropicalis [8]): 5.18 mM
- fractional inhibitory concentration index (FICI) (Candida albicans [9]): 0.5
- MIC (Candida albicans [10]): 4 µg/mL (≈ 8.82 µM)
- MIC (Aspergillus flavus [11]): 4 µg/mL (≈ 8.82 µM)
- MIC (Aspergillus flavus [12]): 1 µg/mL (≈ 2.21 µM)
- MIC (Aspergillus flavus [13]): 64 µg/mL
- fractional inhibitory concentration index (FICI) (Aspergillus flavus [14]): 0.375
- Vmax (Candida tropicalis [15]): 1.21 deltaOD/hr
- fractional inhibitory concentration index (FICI) (Candida albicans [16]): 0.75
- MIC (Aspergillus fumigatus [17]): 8 µg/mL
- viability (A549): 62.2%
- viability at 24 h, 8 ug/ml [18]: 94.3%
- MIC (Aspergillus fumigatus [19]): 8 µg/mL (≈ 17.6 µM)
- fractional inhibitory concentration index (FICI) (Aspergillus fumigatus [20]): 1
- MIC (Candida albicans [21]): 1 µg/mL (≈ 2.21 µM)
- MIC (Candida albicans [22]): 8 µg/mL (≈ 17.6 µM)
- inhibition (Candida tropicalis [23]): 82.3%
- MIC (Aspergillus fumigatus [24]): 4 µg/mL
- MIC (Candida albicans [25]): 64 µg/mL
- fractional inhibitory concentration index (FICI) (Aspergillus fumigatus [26]): 0.75
- inhibition (Candida tropicalis [27]): Active
- MIC (Cryptococcus neoformans [28]): 4 µg/mL (≈ 8.82 µM)
- MIC (Aspergillus fumigatus [29]): 8 µg/mL (≈ 17.6 µM)
- MIC (Cryptococcus neoformans [30]): 2 µg/mL
- fractional inhibitory concentration index (FICI) (Aspergillus flavus [31]): 0.5
- MIC (Aspergillus fumigatus [32]): 128 µg/mL
- fractional inhibitory concentration index (FICI) (Cryptococcus neoformans [33]): 1
- MIC (Cryptococcus neoformans [34]): 32 µg/mL
- viability at 24 h, 16 ug/ml [35]: 94%
- pIC50 [36]: 3.97
- fractional inhibitory concentration index (FICI) (Cryptococcus neoformans [37]): 0.75
- MIC (Cryptococcus neoformans [38]): 2 µg/mL (≈ 4.41 µM)
- viability at 24 h, 32 ug/ml [39]: 87.8%
- pKi [40]: 3.80
- MIC (Cryptococcus neoformans [41]): 4 µg/mL (≈ 8.82 µM)
- MIC (Aspergillus fumigatus [42]): 2 µg/mL (≈ 4.41 µM)
- MIC (Aspergillus flavus [43]): 1 µg/mL
- MIC (Candida albicans [44]): 8 µg/mL (≈ 17.6 µM)
